These results are taken from article PMC12040169 (PLOS Biology, 2025).

A short description of this data set: in vitro. Conditions: human, hela cells, % viability.

With `Cc1ccc(-c2cc(C(=O)N3CCN(C4CCS(=O)(=O)C4)CC3)c3ccccc3n2)cc1` (stereo not drawn) [CBK297153], the viability (commonly a read-out of living cells in per cent, often relative to untreated cells) at 28.5 h, 10 µM was 112%. On the same count and under the same terms, the value for `CCc1nc(NC(=O)c2ccnc(Cl)c2)sc1C` [CBK298287] was 101%; that for `COc1ccc(C(C)=O)cc1Cc1c(O)nc(SC)nc1O` [CBK262699] was 93.9%.

Turning to `CN(CC(=O)Nc1ccc(Cl)c(C(F)(F)F)c1)C(=O)c1cc(O)nc2ccccc12` [CBK295304], the viability at 28.5 h, 10 µM was 87.8%.

Consider `CC(=O)Nc1ccc(NCc2csc(C3CCCO3)n2)c(C(F)(F)F)c1` (stereo not drawn) [CBK304161], for which the viability at 28.5 h, 10 µM turned out to be 101%. The same measure, in the same setting: the value for `CCN1CCN(C(=O)c2c(C)noc2C)CC1` [CBK200374] was 93.6%; that for `N#Cc1ccccc1OCCO` [CBK001443] was 97.9%. The same measure, in the same setting: as for `CCN(CC)CCCNC(=O)N1CCN(Cc2ccccc2)CC1` [CBK155655], the figure is 89.8%; as for `COc1ccc(C(=O)/C=C/Nc2ccc(S(=O)(=O)NC(=N)N)cc2)cc1` [CBK262277], 84.1%.

Regarding `NC(=O)C1(N2CCCCC2)CCN(C(=S)Nc2ccc(Oc3ccccc3)cc2)CC1` [CBK265862], the viability at 28.5 h, 10 µM was determined as 84.7%. For the molecule `OCCCNC(=S)Nc1ccc(Cl)cc1Cl` [CBK265264], the viability at 28.5 h, 10 µM amounted to 96.6%. Still for that read-out and setting: the value for `Cc1ccccc1CCNC(=O)c1cccn(CC(=O)N(C)C2CCCCC2)c1=O` [CBK286028] was 122%; that for `O=C(NC[C@H]1O[C@@H](CC(=O)N2CCCC2)[C@H](O)[C@@H]1O)c1ccccc1` [CBK288907] was 88.5%. On the same count and under the same terms, the value for `CS(=O)(=O)Nc1ccc(C(=O)NCCN2CCOCC2)cc1` [CBK269781] was 93.2%; that for `O=C(CSc1nnnn1C1CC1)Nc1ccc(CN2CCOCC2)cc1` [CBK305857] was 99.2%; that for `Cn1c(SCCCN2C(=O)c3cccc4cccc(c34)C2=O)nnc1-c1ccncc1` [CBK268951] was 93.1%. Still for that read-out and setting: as for `O=C(Nc1snnc1-c1ccc(Cl)cc1)c1ccco1` [CBK153242], the figure is 102%; as for `Clc1ccc(COc2nccnc2OC2CCN(CCOc3ccccc3)CC2)cc1Cl` [CBK083121T], 95.9%; as for `Cc1ccc(S(=O)(=O)N2/C(=C\COc3ccc(Cl)cc3Cl)C(N3CCOCC3)c3ccccc32)cc1` (stereo not drawn) [CBK262740], 87.6%. Take `CC(C)Cn1c(=O)[nH]c2ncc(-c3cncnc3)nc21` [CBK064177]: the viability at 28.5 h, 10 µM was 90.1%. For `Cc1ccc2c(c1)cc(C(=O)N1CCOC(C(=O)N3CCCCCC3)C1)n2C` (stereo not drawn) [CBK286032], the viability at 28.5 h, 10 µM was determined as 109%.

With `CC[n+]1c(C(C)(C)C)csc1NCC1CC1` [CBK011154B], the viability at 28.5 h, 10 µM stood at 106%.

For the molecule `O=C(c1coc2ccc(O)c(CN3CCCCC3)c12)C1CC1` [CBK263206C], the viability at 28.5 h, 10 µM came out at 93.7%. Still for that read-out and setting: the value for `Cn1nccc1C(=O)N1CCCC(c2cc3ncccc3[nH]2)C1` (stereo not drawn) [CBK283413] was 104%; that for `COC(=O)Cc1nc(NS(=O)(=O)c2ccc(Oc3cccc(Cl)c3C#N)cc2)sc1C` [CBK000744] was 98.3%. The same measure, in the same setting: the value for `O=C(NCc1ccccn1)c1cnn(-c2ccc(Cl)cc2)c1C(F)(F)F` [CBK116637T] was 101%; that for `CCCc1nn(CC(=O)N2CCCC2)c(=O)c2cc3ccsc3n12` [CBK284145] was 85.5%. The same measure, in the same setting: as for `CCC1CCCCN1Cc1nc2c(c(=O)n(C)c(=O)n2C)n1CCOC` (stereo not drawn) [CBK305912], the figure is 104%; as for `O=C(Nc1cccc(Br)c1)C1CN(S(=O)(=O)c2ccccc2)CCN1S(=O)(=O)c1ccccc1` (stereo not drawn) [CBK262671], 79.7%; as for `COc1ccc(C(NC(=O)C2CC=CCC2C(=O)O)c2ccccc2)cc1` (stereo not drawn) [CBK264264], 91.6%. Consider `CCOC(=O)N1CCC(NC(=O)N(CCCN(C)C)Cc2ccc3c(c2)OCO3)CC1` [CBK159231], for which the viability at 28.5 h, 10 µM stood at 91%. On the same count and under the same terms, as for `CC12CCCN1CCCN2C(=O)c1c[nH]c2ccccc12` (stereo not drawn) [CBK169228], the figure is 87.2%; as for `Cc1nn(C)c(N2CCNCC2)c1NC(=O)CN(C)C(=O)c1ccccc1` [CBK050255T], 109%.

For `COc1ccc(N2C(=O)/C(=C/c3cc(C)n(-c4ccc(N5CCOCC5)cc4)c3C)C(=O)NC2=S)cc1` [CBK263798], the viability at 28.5 h, 10 µM (bulk resorufin, single well) came out at 89.7%. On to `CCCOC(=O)c1c(NC(=O)C2C3C=CC(C3)C2C(=O)O)sc2c1CCC(C)C2` (stereo not drawn) [CBK265473], for which the viability at 28.5 h, 10 µM is 87.5%. Still for that read-out and setting: as for `CC(C)OC(=O)[C@@H]1CCN(C(=O)CCC2NC(=O)NC2=O)[C@@H]1c1ccc(F)cc1` (stereo partly drawn) [CBK285520], the figure is 103%; as for `Cc1cccn2c(CN3CCCOCC3)c(C(=O)N3CCOCC3)nc12` [CBK307144], 111%. The same measure, in the same setting: the value for `COc1nccc(N2CCC3(CCC(=O)N(CCO)C3)CC2)c1C#N` [CBK307255] was 117%; that for `Cc1ccc(C(=O)N2CC(=O)N(CCO)C2)cc1` [CBK045864] was 110%. The same measure, in the same setting: as for `CSc1nc(=O)c(CCC(=O)O)n[nH]1` [CBK019689], the figure is 110%; as for `Cc1cc(C)nc(Nc2noc(-c3ccccc3)n2)n1` [CBK269971], 94.5%. Regarding `O=C(CSc1nc(-c2ccccc2)cc(=O)[nH]1)NCc1ccccc1` [CBK287734], the viability at 28.5 h, 10 µM was determined as 82.7%. On the same count and under the same terms, as for `CC(=O)c1cccc(-n2c(CCC(=O)O)ccc2-c2ccc(Br)cc2)c1` [CBK131888], the figure is 98.2%; as for `N#Cc1cccnc1SC(C(=O)O)c1ccccc1` (stereo not drawn) [CBK286614], 106%; as for `Cc1nccn1CC1(O)CCN(Cc2cn(C)c3ccccc23)CC1` [CBK285017], 102%. In the case of `Cc1ccc(NC(=O)N2CCC(C(=O)O)CC2)cc1` [CBK156077], the viability at 28.5 h, 10 µM turned out to be 105%. The same measure, in the same setting: the value for `O=C1NC2(CCc3ccccc31)CCN(C(=O)c1ccccn1)C2` (stereo not drawn) [CBK283337] was 96%. `Cn1c(N2CC[C@H](O)C2)nc2cc(C(=O)NCCc3cscn3)ccc21` [CBK306824]: the viability at 28.5 h, 10 µM turned out to be 88.5%.

Regarding `Cc1cccc(OCC(=O)Nc2ccc(-c3nc4ncccc4o3)cc2C)c1` [CBK269287], the viability at 28.5 h, 10 µM came out at 87.3%. For the molecule `O=C1NC/C=C/CC2(CCN(Cc3c[nH]c4ccccc34)CC2)C(=O)NCCOc2ccccc21` [CBK292085], the viability at 28.5 h, 10 µM is 100%. The same measure, in the same setting: as for `CC1CCc2nc(NS(=O)(=O)c3ccccc3)sc2C1` (stereo not drawn) [CBK026915], the figure is 110%; as for `O=C(NC1CC1)N1CCN(CCCOc2ccc(F)cc2)CC1` [CBK025077C], 111%; as for `COC(=O)c1cc(-c2ccccc2OCc2ccccc2)ccc1NC(=O)c1ccc(Cl)cc1Cl` [CBK000415], 88.5%. Still for that read-out and setting: as for `CCOC(=O)Nc1ccc2c(c1)N(C(=O)CN1CCN(C)CC1)c1ccccc1CC2` [CBK278194C], the figure is 88.7%. The same measure, in the same setting: the value for `c1coc(-c2nc3n(n2)CCS3)c1` [CBK007565] was 84.7%; that for `CCc1nccn1CCC(=O)Nc1ccc2c(c1)CCN2C(C)=O` [CBK281446] was 90.9%. As to `COc1cccc(-c2noc(Cn3cnc4sccc4c3=O)n2)c1` [CBK297127], the viability at 28.5 h, 10 µM is 85.3%.
